# Assay results published in ChEMBL document CHEMBL1156743, “Design, synthesis, and biological evaluations of 2,5-diaryl-2,3-dihydro-1,3,4-oxadiazoline analogs of combretastatin-A4” (J Med Chem, 2010).
# Active and inactive are the calls of the source. The rule behind the calls is not given here.
# Tests used:
# L1210 = test: Antiproliferative activity against mouse L1210 cells after 72 hrs by MTT assay; type: functional, cell-based; details: L1210, 72 h
# MDA-MB-435 [1] = test: Antiproliferative activity against human MDA-MB-435 cells after 48 hrs by SRB assay; type: functional, cell-based; details: MDA-MB-435, 48 h
# A10 [2] = test: Antiproliferative activity against rat A10 cells assessed as microtubule depolymerization after 18 to 24 hrs by indirect immunofluorescence technique; type: functional, cell-based
# [3] = Relative aqueous solubility at pH 7.4 by filter plate assay; type: physicochemical; details: buffer
# MDA-MB-435 [4] = test: Ratio of EC50 for rat A10 cells to IC50 for human MDA-MB-435 cells; type: functional
# [5] = Antiproliferative activity against mouse B16F0 cells after 72 hrs by MTT assay; type: functional
# HeLa [6] = test: Antimitotic activity in human HeLa cells assessed as gamma-tubulin containing centrosomes at 0.5 uM after 18 hrs by indirect immunofluorescence technique; type: functional, cell-based
# HeLa [7] = test: Antimitotic activity in human HeLa cells assessed as multipolar mitotic spindles at 0.5 uM after 18 hrs by indirect immunofluorescence technique; type: functional, cell-based
# MDA-MB-435 [8] = test: Cell cycle arrest in human MDA-MB-435 cells assessed as accumulation at G2/M phase at 0.5 uM after 18 hrs by flow cytometry; type: functional, cell-based
# HeLa [9] = test: cells; details: Homo sapiens, 48 h
# Description: Antiproliferative activity against human HeLa cells after 48 hrs by SRB assay
# SK-OV-3 [10] = test: Antiproliferative activity against human SKOV3 cells after 48 hrs by SRB assay; type: functional, cell-based; details: SK-OV-3, 48 h
# HeLa [11] = test: Antiproliferative activity against human HeLa cells expressing wild type beta3 tubulin after 48 hrs by SRB assay; type: functional, cell-based
# SK-OV-3 [12] = test: Antiproliferative activity against human SKOV3 cells expressing adenoviral MDR1 after 48 hrs by SRB assay; type: functional, cell-based; details: SK-OV-3, 48 h
# HeLa [13] = test: Antimitotic activity in human HeLa cells assessed as effect on DNA at 0.5 uM after 18 hrs by indirect immunofluorescence technique; type: functional, cell-based
# A10 [14] = test: Antiproliferative activity against rat A10 cells assessed as microtubule depolymerization at 1 uM after 18 hrs by indirect immunofluorescence technique; type: functional, cell-based
smiles,measurement,setting,value
COc1ccc(C2=NN(C(C)=O)C(c3cccc([N+](=O)[O-])c3)O2)cc1 (stereo unspecified),IC50,L1210,47 µM
COc1ccc(C2OC(c3cc(OC)c(OC)c(OC)c3)=NN2C(C)=O)cc1OC(C)=O (stereo unspecified),IC50,MDA-MB-435 [1],3.3 µM
same,EC50,A10 [2],10.2 µM
same,solubility,[3],112 µM
same,Ratio,MDA-MB-435 [4],3.1
same,IC50,L1210,3.9 µM
COc1ccc(C2=NN(C(C)=O)C(c3ccccc3)O2)cc1 (stereo unspecified),IC50,L1210,> 100 µM
COc1ccc(C2=NN(C(C)=O)C(c3cccc(OC)c3)O2)cc1 (stereo unspecified),IC50,L1210,41 µM
COc1ccc(C2=NN(C(C)=O)C(c3cc(OC)ccc3OC)O2)cc1 (stereo unspecified),IC50,MDA-MB-435 [1],0.2 µM
same,EC50,A10 [2],1.3 µM
same,solubility,[3],259 µM
same,Ratio,MDA-MB-435 [4],6.5
same,IC50,L1210,0.5 µM
COc1ccc(C2OC(c3cc(OC)c(OC)c(OC)c3)=NN2C(C)=O)cc1[N+](=O)[O-] (stereo unspecified),IC50,L1210,58 µM
COc1ccc(/C=C\c2cc(OC)c(OC)c(OC)c2)cc1O [COMBRETASTATIN A4],EC50,A10 [2],0.007 µM
same,solubility,[3],350 µM
same,Activity,[5],0.003 µM
COc1ccc(OC)c(C2OC(c3cc(OC)c(OC)c(OC)c3)=NN2C(C)=O)c1 (stereo unspecified),IC50,L1210,55 µM
COc1ccc(C2=NN(C(C)=O)C(c3ccc([N+](=O)[O-])cc3)O2)cc1 (stereo unspecified),IC50,L1210,68 µM
COc1ccc(C2=NN(C(C)=O)C(c3ccccc3OC)O2)cc1 (stereo unspecified),IC50,L1210,5.8 µM
COc1cc(OC)cc(C2OC(c3cc(OC)c(OC)c(OC)c3)=NN2C(C)=O)c1 (stereo unspecified),IC50,L1210,5.9 µM
COc1ccc(C2=NN(C(C)=O)C(c3ccc(OC)c([N+](=O)[O-])c3)O2)cc1 (stereo unspecified),IC50,L1210,> 100 µM
COc1ccc(C2=NN(C(C)=O)C(c3cc(OC)cc(OC)c3)O2)cc1 (stereo unspecified),IC50,MDA-MB-435 [1],0.11 µM
same,EC50,A10 [2],1 µM
same,solubility,[3],94 µM
same,Ratio,MDA-MB-435 [4],9.1
same,IC50,L1210,0.5 µM
COc1ccc(C2=NN(C(C)=O)C(c3cc(OC)c(OC)c(OC)c3)O2)cc1 (stereo unspecified),IC50,MDA-MB-435 [1],0.14 µM
same,EC50,A10 [2],0.5 µM
same,Activity,HeLa [6],Active
same,Activity,HeLa [7],Active
same,Activity,MDA-MB-435 [8],Active
same,IC50,HeLa [9],0.23 µM
same,IC50,SK-OV-3 [10],0.34 µM
same,solubility,[3],257 µM
same,Ratio,MDA-MB-435 [4],3.6
same,IC50,L1210,0.5 µM
same,IC50,HeLa [11],0.27 µM
same,IC50,SK-OV-3 [12],0.45 µM
same,Activity,HeLa [13],Active
same,Activity,A10 [14],Active
COc1cc(C2=NN(C(C)=O)C(c3cccc([N+](=O)[O-])c3)O2)cc(OC)c1OC (stereo unspecified),IC50,L1210,39 µM
COc1cc(C2=NN(C(C)=O)C(c3cc(OC)c(OC)c(OC)c3)O2)cc(OC)c1OC (stereo unspecified),IC50,L1210,> 100 µM
COc1cc(C2=NN(C(C)=O)C(c3ccc([N+](=O)[O-])cc3)O2)cc(OC)c1OC (stereo unspecified),IC50,L1210,4.2 µM
COc1ccccc1C1OC(c2cc(OC)c(OC)c(OC)c2)=NN1C(C)=O (stereo unspecified),IC50,L1210,48 µM
COc1ccc(C2OC(c3cc(OC)c(OC)c(OC)c3)=NN2C(C)=O)cc1 (stereo unspecified),IC50,L1210,57 µM
COc1ccc(C2=NN(C(C)=O)C(c3ccc(OC)c(OC(C)=O)c3)O2)cc1 (stereo unspecified),IC50,L1210,> 100 µM
COc1cc(C2=NN(C(C)=O)C(c3cccc(Br)c3)O2)cc(OC)c1OC (stereo unspecified),IC50,MDA-MB-435 [1],0.15 µM
same,EC50,A10 [2],1.5 µM
same,solubility,[3],66 µM
same,Ratio,MDA-MB-435 [4],10
same,IC50,L1210,0.6 µM
COc1cc(C2=NN(C(C)=O)C(c3ccccc3)O2)cc(OC)c1OC (stereo unspecified),IC50,L1210,6.4 µM
COc1cccc(C2OC(c3cc(OC)c(OC)c(OC)c3)=NN2C(C)=O)c1 (stereo unspecified),IC50,L1210,45 µM
COc1ccc(C2=NN(C(C)=O)C(c3ccc(OC)cc3)O2)cc1 (stereo unspecified),IC50,L1210,> 100 µM
COc1ccc(C2=NN(C(C)=O)C(c3cccc(Br)c3)O2)cc1 (stereo unspecified),IC50,L1210,37 µM
